Data on 37 compounds can be found in patent US12391674B2, “Heterocyclic compounds for the treatment of epilepsy” (OTSUKA PHARMACEUTICAL CO., LTD., priority 2018, dated 2025).

The test system of one data set is DBA/2 mice. The data set is described as follows: Audiogenic seizure model. The format is in vivo. The following applies: Mus musculus, DBA/2 mice, oral, auditory stimulation 1 hour after administration, read-out: Seizure suppression. The essentials:
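Male and female DBA/2 mice (3 weeks old, 8/group) dosed orally at 30 mg/kg in 5% gum arabic; 1 h later exposed to 12.6 kHz, 100-110 dB tone for 1 min or until tonic seizure. Maximum seizure score (0–4) recorded; suppression rate graded A (≥90%), B (70–<90%), C (50–<70%).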

A further data set has as its system ICR mice. Kind of data set: Rotarod test (motor coordination). The following applies: oral, rotarod 1 hour after administration. In kind it is in vivo, mouse. The method, then:
This test is performed to evaluate the effect of the compound on the motor coordination. In this test example, the example compounds shown in Table 4 below were used as test compounds. Male ICR mice (Japan SLC, Inc., 5-6 weeks, 8 per group) were trained to remain on a fixed speed (15 rpm) rotating rod of rotarod apparatus (Muromachi Kikai Co., Ltd.) for 2 minutes. […] After 1 hour of oral administration, the mice were again placed on the rod accelerated from 4 rpm to 40 rpm over 5 minutes and the latency to fall off the rod was recorded for 200 seconds. The falling latency of the compound administration group was calculated as a relative value relative to the average value of the falling latency in the solvent administration group. Here, a coordination disorder of 25% or less was expressed as “A”, and a coordination disorder of more than 25% and 50% or less was expressed as “B”.
A general note: The rotarod test checks motor coordination on a turning rod.

As for `FC(F)(F)Oc1cccc(Oc2ncc(-c3ccc4nccn4c3)cn2)c1` [Example 171], the inhibition in vivo at 5 mg/kg in the data set on DBA/2 mice was over 90%. Besides, the Motor dysfunction entry in the data set on ICR mice (dose 5 mg/kg) is “A (a coordination disorder of 25% or less)”.

As for `c1ccc(Oc2ncc(-c3ccc4[nH]ccc4c3)cn2)cc1` [Example 262, 5-(2-Phenoxypyrimidin-5-Yl)-1H-Indole], the inhibition in vivo at 5 mg/kg in the data set on DBA/2 mice was over 90%. For the same compound, the Motor dysfunction result in the data set on ICR mice (dose 5 mg/kg) is listed as “A (a coordination disorder of 25% or less)”.

`FC(F)(F)c1ccc(-c2cnc(Oc3ccccc3)nc2)cn1` [Example 27]: the inhibition in vivo at 30 mg/kg with DBA/2 mice was over 90%. Moreover, the Motor dysfunction entry with ICR mice (dose 30 mg/kg) is “A (a coordination disorder of 25% or less)”.

Regarding `COc1ccc(-c2cnc(Oc3ccccc3)nc2)cn1` [Example 6, 5-(6-Methoxypyridin-3-Yl)-2-Phenoxypyrimidine], the inhibition in vivo at 5 mg/kg with DBA/2 mice was over 90%. Moreover, in the data set on ICR mice (dose 5 mg/kg), the Motor dysfunction entry was “A (a coordination disorder of 25% or less)”.

Consider `Nc1ccc(-c2cnc(Oc3cccc(C(F)(F)F)c3)nc2)nn1` [Example 40], for which the inhibition in vivo at 3 mg/kg in the data set on DBA/2 mice was over 90%. Further, the Motor dysfunction result in the data set on ICR mice (dose 3 mg/kg) was “A (a coordination disorder of 25% or less)”.

On to `Cc1cccc(Oc2ncc(-c3ccc4nccn4c3)cn2)c1` [Example 161], for which the inhibition in vivo at 5 mg/kg in the data set on DBA/2 mice was over 90%. Moreover, in the data set on ICR mice (dose 5 mg/kg), the Motor dysfunction result is on record as “A (a coordination disorder of 25% or less)”.

In the case of `O=c1ccc(-c2cnc(Oc3ccccc3F)nc2)n[nH]1` [Example 95], the inhibition in vivo at 3 mg/kg with DBA/2 mice was over 90%. Further, the Motor dysfunction result with ICR mice (dose 10 mg/kg) is reported as “A (a coordination disorder of 25% or less)”.

As to `Fc1cccc(Oc2ncc(-c3ccc4nccn4c3)cn2)c1` [Example 122], the inhibition in vivo at 5 mg/kg in the data set with DBA/2 mice was over 90%. The Motor dysfunction result in the data set with ICR mice (dose 5 mg/kg) is on record as “A (a coordination disorder of 25% or less)”.

As for `O=c1ccc(-c2cnc(Oc3cc(F)cc(F)c3)nc2)n[nH]1` [Example 102], the inhibition in vivo at 10 mg/kg with DBA/2 mice is over 90%. Besides, in the data set with ICR mice (dose 10 mg/kg), the Motor dysfunction result is on record as “A (a coordination disorder of 25% or less)”.

Turning to `N#Cc1ccc(-c2cnc(Oc3ccccc3)nc2)cn1` [Example 297], the inhibition in vivo at 1 mg/kg in the data set on DBA/2 mice (dose 1 mg/kg) was over 90%. For the same compound, in the data set with ICR mice (dose 1 mg/kg), the Motor dysfunction entry is on record as “A (a coordination disorder of 25% or less)”.

On to `O=c1ccc(-c2cnc(Oc3cccc(C(F)(F)F)c3)nc2)n[nH]1` [Example 99], for which the inhibition in vivo at 10 mg/kg in the data set with DBA/2 mice is over 90%. The Motor dysfunction result in the data set with ICR mice (dose 10 mg/kg) was “A (a coordination disorder of 25% or less)”.

Regarding `O=c1ccc(-c2cnc(Oc3c(F)cccc3F)nc2)n[nH]1` [Example 101], the inhibition in vivo at 3 mg/kg with DBA/2 mice is over 90%. Moreover, the Motor dysfunction entry with ICR mice (dose 3 mg/kg) is given as “A (a coordination disorder of 25% or less)”.

`c1ccc(Oc2ncc(-c3ccc4ncnn4c3)cn2)cc1` [Example 141]: in the data set with DBA/2 mice, the inhibition in vivo at 5 mg/kg is over 90%. Also, the Motor dysfunction entry with ICR mice (dose 5 mg/kg) was “B (a coordination disorder of more than 25% and 50% or less)”.

With `Nc1ccc(-c2cnc(Oc3ccccc3F)nc2)nn1` [Example 26], in the data set on DBA/2 mice, the inhibition in vivo at 5 mg/kg is over 90%. In addition, the Motor dysfunction entry in the data set on ICR mice (dose 5 mg/kg) was “A (a coordination disorder of 25% or less)”.

Consider `O=C1CCN(c2ccc(Oc3ccccc3)cc2)C(=O)N1` [Example 303], for which, in the data set on DBA/2 mice, the inhibition in vivo at 30 mg/kg is over 90%. In the data set on ICR mice (dose 30 mg/kg), the Motor dysfunction result is reported as “A (a coordination disorder of 25% or less)”.

Regarding `c1ccc(Oc2ncc(-c3cn4ccnc4cn3)cn2)cc1` [Example 148], in the data set on DBA/2 mice, the inhibition in vivo at 30 mg/kg is over 90%. Besides, the Motor dysfunction entry in the data set on ICR mice (dose 30 mg/kg) is on record as “A (a coordination disorder of 25% or less)”.

Consider `Nc1ccc(-c2cnc(Oc3cccc(OC(F)(F)F)c3)nc2)nn1` [Example 42], for which, in the data set with DBA/2 mice, the inhibition in vivo at 5 mg/kg is over 90%. For the same compound, in the data set on ICR mice (dose 5 mg/kg), the Motor dysfunction result is “A (a coordination disorder of 25% or less)”.

As to `FC(F)(F)c1ccnc(-c2cnc(Oc3ccccc3)nc2)n1` [Example 300], the inhibition in vivo at 30 mg/kg in the data set with DBA/2 mice is over 90%. Further, the Motor dysfunction result with ICR mice (dose 30 mg/kg) is given as “A (a coordination disorder of 25% or less)”.

`O=C1COCCN1c1cnc(Oc2ccccc2)nc1` [Example 229, 4-(2-Phenoxypyrimidin-5-Yl) Morpholin-3-One]: in the data set on DBA/2 mice, the inhibition in vivo at 30 mg/kg is over 90%. The Motor dysfunction result in the data set with ICR mice (dose 30 mg/kg) is reported as “A (a coordination disorder of 25% or less)”.

Turning to `Cc1c(-c2cnc(Oc3ccccc3)nc2)ccc2nccn12.Cl` [Example 198, 5-Methyl-6-(2-Phenoxypyrimidin-5-Yl) Imidazo[1,2-a]Pyridine Hydrochloride], in the data set on DBA/2 mice, the inhibition in vivo at 5 mg/kg is over 90%. Also, in the data set with ICR mice (dose 5 mg/kg), the Motor dysfunction entry is listed as “A (a coordination disorder of 25% or less)”.

Turning to `O=c1[nH]nccc1-c1cnc(Oc2ccccc2)nc1` [Example 114, 4-(2-Phenoxypyrimidin-5-Yl)Pyridazin-3 (2H)-One], in the data set on DBA/2 mice, the inhibition in vivo at 5 mg/kg is over 90%. For the same compound, the Motor dysfunction result with ICR mice (dose 5 mg/kg) is recorded as “A (a coordination disorder of 25% or less)”.

Turning to `c1ccc(Oc2ncc(-c3cccnc3)cn2)cc1` [Example 7, 2-Phenoxy-5-(Pyridin-3-Yl)Pyrimidine], the inhibition in vivo at 5 mg/kg with DBA/2 mice was over 90%. For the same compound, the Motor dysfunction result in the data set on ICR mice (dose 5 mg/kg) is listed as “A (a coordination disorder of 25% or less)”.

`OC1CCN(c2cnc(Oc3ccccc3)nc2)CC1` [Example 226, 1-(2-Phenoxypyrimidin-5-Yl) Piperidin-4-Ol]: in the data set with DBA/2 mice, the inhibition in vivo at 5 mg/kg was over 90%. Besides, the Motor dysfunction result in the data set with ICR mice (dose 5 mg/kg) was “B (a coordination disorder of more than 25% and 50% or less)”.

For `O=C1C[C@H](O)CCN1c1cnc(Oc2ccccc2)nc1` [Example 235], the inhibition in vivo at 30 mg/kg in the data set with DBA/2 mice was over 90%. The Motor dysfunction result in the data set with ICR mice (dose 30 mg/kg) was “A (a coordination disorder of 25% or less)”.

Consider `c1ccc(Oc2ncc(-c3ccc4c(c3)OCO4)cn2)cc1` [Example 236], for which the inhibition in vivo at 30 mg/kg with DBA/2 mice was over 90%. Moreover, the Motor dysfunction entry in the data set with ICR mice (dose 30 mg/kg) is “A (a coordination disorder of 25% or less)”.

As to `COc1ccc(-c2cnc(Oc3cccc(F)c3)nc2)nn1` [Example 4, 3-(2-(3-Fluorophenoxy)Pyrimidin-5-Yl)-6-Methoxypyridazine], in the data set with DBA/2 mice, the inhibition in vivo at 5 mg/kg was over 90%. Besides, in the data set on ICR mice (dose 5 mg/kg), the Motor dysfunction entry was “A (a coordination disorder of 25% or less)”.

Consider `O=C1CCN(c2ccc(Oc3cccc(OC(F)(F)F)c3)cc2)C(=O)N1` [Example 306], for which the Motor dysfunction result with ICR mice (dose 30 mg/kg) is listed as “A (a coordination disorder of 25% or less)”.

Turning to `Nc1ccc(-c2cnc(Oc3ccc(F)c(F)c3)nc2)cn1` [Example 85], the inhibition in vivo at 30 mg/kg in the data set on DBA/2 mice is over 90%.

Regarding `FC(F)(F)Oc1cccc(Oc2ncc(-c3ccc(C(F)(F)F)nn3)cn2)c1` [Example 67], the inhibition in vivo at 30 mg/kg in the data set with DBA/2 mice is over 90%.

For `[O-][n+]1cccc(-c2cnc(Oc3cccc(F)c3)nc2)c1` [Example 61], the inhibition in vivo at 30 mg/kg in the data set on DBA/2 mice is over 90%.

Regarding `COc1ccc(-c2cnc(Oc3cccc(Cl)c3)nc2)nn1` [Example 71], the inhibition in vivo at 30 mg/kg in the data set on DBA/2 mice is over 90%.

With `Fc1cccc(Oc2ncc(-c3ccc4cnnn4c3)cn2)c1` [Example 175], the inhibition in vivo at 30 mg/kg with DBA/2 mice is over 90%.

Regarding `Fc1ccc(Oc2ncc(-c3ccc4nccn4n3)cn2)cc1` [Example 126], the inhibition in vivo at 30 mg/kg with DBA/2 mice was over 90%.

Regarding `Fc1cccc(Oc2ncc(-c3ccc4nccn4n3)cn2)c1` [Example 125], the inhibition in vivo at 30 mg/kg in the data set with DBA/2 mice is over 90%.

With `Fc1ccc(Oc2ncc(-c3ccn4nncc4c3)cn2)cc1` [Example 187], in the data set with DBA/2 mice, the inhibition in vivo at 30 mg/kg is over 90%.

Regarding `c1ccc(Oc2ncc(-c3ccc4scnc4c3)cn2)cc1` [Example 241], in the data set with DBA/2 mice, the inhibition in vivo at 30 mg/kg is over 90%.

Regarding `O=c1cc(-c2cnc(Oc3ccccc3)nc2)cn[nH]1` [Example 116], in the data set on DBA/2 mice, the inhibition in vivo at 30 mg/kg is over 90%.
